Measured values as given in patent US20170320848A1, “COMPOUNDS FOR USE IN ANTHELMINTHIC TREATMENT” (Bayer Animal Health GMBH, priority 2014, published 2017).

Experiments:
[1] = Measurement of LogP values by HPLC on reversed phase columns (EEC directive 79/831 Annex V.A8); assay type: physicochemical; details: acidic range, 0.1% formic acid in water and acetonitrile as eluent; for chromatographic logP: reversed phase HPLC columns, read-out: logP (HCOOH)[a]
[2] = system: Cooperia curticei; test: Cooperia curticei assay (COOPCU), larval mortality; assay type: cell-based; details: application rate 20 ppm, after 5 days; for mortality at 20 ppm: Cooperia curticei, 120 h, read-out: activity (percentage of larval mortality)
Experimental: Cooperia Curticei—Assay (COOPCU)
Solvent: dimethyl sulfoxide
To produce a suitable preparation, 10 mg of active compound are dissolved in 0.5 ml solvent, and the concentrate is diluted with “Ringer's solution” to the desired concentration.
Approximately 40 nematode larvae (Cooperia curticei) are transferred into a test tube containing the compound solution.
After 5 days percentage of larval mortality is recorded. 100% efficacy means all larvae are killed; 0% efficacy means no larvae are killed.

[3] = system: Meloidogyne incognita; test: Meloidogyne incognita assay (MELGIN), gall formation on salad seedlings; assay type: in vivo; details: application rate 20 ppm, after 14 days
Experimental: Meloidogyne Incognita—Assay (MELGIN)
Solvent: 125.0 parts by weight of acetone
To produce a suitable preparation, 1 part by weight of active compound is mixed with the stated amount of solvent, and the concentrate is diluted with water to the desired concentration.
Vessels are filled with sand, a solution of the active ingredient, a suspension containing eggs and larvae of the southern root-knot nematode (Meloidogyne incognita) and salad seeds. The salad seeds germinate and the seedlings grow. Galls develop in the roots.
After 14 days the nematicidal activity is determined on the basis of the percentage of gall formation. 100% means no galls were found and 0% means the number of galls found on the roots of the treated plants was equal to that in untreated control plants.

Compound	logP (HCOOH)[a] [1]	nematicidal activity (percentage of gall formation) [3]	further results
CN(C)c1ccc(-c2ccc(C(F)(F)CNC(=O)c3ccccc3C(F)(F)F)c(Cl)c2)cc1 [Example 28]			chromatographic logP [1]: 4.28; mortality at 20 ppm [2]: 80%
N#Cc1ccc(-c2ccc(C(F)(F)CNC(=O)c3ccccc3C(F)(F)F)c(Cl)c2)cc1Cl [Example 105]	4.02	100%	
O=C(NCC(F)(F)c1ccc(-c2ccc(F)cc2)cc1Cl)c1c(F)cccc1F [Example 60]	3.85	100%	
O=C(NCC(F)(F)c1ccc(-c2cccc(OC(F)F)c2)cc1Cl)c1ccccc1C(F)(F)F [Example 65]	4.08	100%	
O=C(NCC(F)(F)c1ccc(-c2ccc(F)cc2)cc1Cl)c1cccnc1Cl [Example 63]	3.46	100%	
O=C(NCC(F)(F)c1c(F)cc(-c2cc(F)c(F)c(F)c2)cc1F)c1ccccc1C(F)(F)F [Example 108]	4.2	90%	
O=C(NCC(F)(F)c1ccc(-c2ccc(Cl)c(Cl)c2)cc1Cl)c1ccccc1C(F)(F)F [Example 70]	4.93	90%	
COc1cc(-c2ccc(C(F)F)cc2)ccc1C(F)(F)CNC(=O)c1ccccc1C(F)(F)F [Example 91]	3.81		activity (percentage of larval mortality) [2]: 80%
Cc1cc(-c2ccc(F)c(F)c2)ccc1C(F)(F)CNC(=O)c1ccccc1C(F)(F)F [Example 120]	4.2	100%	
O=C(NCC(F)(F)c1ccc(-c2ccc(F)cc2)cc1Cl)c1ncccc1C(F)(F)F [Example 62]	4.05	100%	
Cc1cc(-c2ccc(Cl)c(F)c2)ccc1C(F)(F)CNC(=O)c1ccccc1C(F)(F)F [Example 125]	4.61	100%	
CNc1ccc(-c2ccc(C(F)(F)CNC(=O)c3ccccc3C(F)(F)F)c(Cl)c2)cc1 [Example 29]			chromatographic logP [1]: 3.59; mortality at 20 ppm [2]: 80%
Cc1cc(-c2cc(F)c(Cl)c(F)c2)ccc1C(F)(F)CNC(=O)c1ccccc1C(F)(F)F [Example 126]	4.77	90%	
CN(C)c1ccc(-c2ccc(C(F)(F)CNC(=O)c3ccccc3C(F)(F)F)c(C(F)(F)F)c2)cc1 [Example 10]			mortality at 20 ppm [2]: 80%
O=C(NCC(F)(F)c1ccc(-c2ccc(F)cc2)cc1Cl)c1cccnc1I [Example 64]	3.56	100%	
N#Cc1cc(-c2cccc(C(F)F)c2)ccc1C(F)(F)CNC(=O)c1ccccc1C(F)(F)F [Example 79]	3.59		activity (percentage of larval mortality) [2]: 80%
Cc1cc(-c2ccc(F)cc2F)ccc1C(F)(F)CNC(=O)c1ccccc1C(F)(F)F [Example 119]	4.15	100%	
O=C(NCC(F)(F)c1ccc(-c2cc(F)c(F)c(F)c2)cc1Cl)c1ccccc1Cl [Example 115]	4.23	100%	
O=C(NCC(F)(F)c1ccc(-c2ccc(OC(F)F)cc2)cc1Cl)c1ccccc1C(F)(F)F [Example 68]	4.03	100%	
O=C(NCC(F)(F)c1ccc(-c2ccc(F)cc2)cc1C(F)(F)F)c1nccnc1C(F)(F)F [Example 52]		100%	
O=C(NCC(F)(F)c1ccc(-c2cccc(C(F)F)c2)cc1Cl)c1ccccc1C(F)(F)F [Example 43]	4.03	100%	
Cc1cc(-c2ccc(F)c(Cl)c2)ccc1C(F)(F)CNC(=O)c1ccccc1C(F)(F)F [Example 124]	4.56	100%	
Cc1cc(-c2cc(F)c(F)c(F)c2)ccc1C(F)(F)CNC(=O)c1ccccc1C(F)(F)F [Example 109]	4.48	100%	
O=C(NCC(F)(F)c1ccc(-c2ccc(N3CCCC3)cc2)cc1Cl)c1ccccc1C(F)(F)F [Example 78]	5.08		activity (percentage of larval mortality) [2]: 90%
Cc1cc(-c2ccc(C#N)cc2)ccc1C(F)(F)CNC(=O)c1ccccc1C(F)(F)F [Example 49]	3.7	100%	
O=C(NCC(F)(F)c1ccc(-c2cc(F)c(F)c(F)c2)cc1Cl)c1ncccc1C(F)(F)F [Example 112]	4.23	100%	
COc1cc(-c2ccc(C(F)(F)F)cc2)ccc1C(F)(F)CNC(=O)c1ccccc1C(F)(F)F [Example 87]	4.33		activity (percentage of larval mortality) [2]: 90%
Cc1cc(-c2ccc(Cl)c(Cl)c2)ccc1C(F)(F)CNC(=O)c1ccccc1C(F)(F)F [Example 122]	4.98	100%	

Compound	logP (HCOOH)[a] [1]	nematicidal activity (percentage of gall formation) [3]	further results
Cc1cc(-c2ccc(C(F)(F)F)cc2)ccc1C(F)(F)CNC(=O)c1ccccc1C(F)(F)F [Example 88]	4.62		
N#Cc1cc(-c2ccc(C(F)(F)F)cc2)ccc1C(F)(F)CNC(=O)c1ccccc1C(F)(F)F [Example 85]	4.07		
N#Cc1cc(-c2ccc(C(F)(F)CNC(=O)c3ccccc3C(F)(F)F)c(Cl)c2)ccc1Cl [Example 95]	4.07	100%	
O=C(NCC(F)(F)c1ccc(-c2cc(F)c(F)c(F)c2)cc1Cl)c1ccccc1Br [Example 116]	4.28		
COc1ccc(-c2ccc(C(F)(F)CNC(=O)c3ccccc3C(F)(F)F)c(F)c2)cc1 [Example 6]			mortality at 20 ppm [2]: 80%
O=C(NCC(F)(F)c1ccc(-c2ccc(F)c(Cl)c2)cc1Cl)c1ccccc1C(F)(F)F [Example 94]	4.57	100%	
O=C(NCC(F)(F)c1ccc(-c2cc(F)cc(F)c2)cc1F)c1ccccc1C(F)(F)F [Example 101]		100%	
COc1cc(-c2cc(F)c(F)c(F)c2)ccc1C(F)(F)CNC(=O)c1ccccc1C(F)(F)F [Example 118]	4.23		
Cc1cc(-c2cccc(Cl)c2)ccc1C(F)(F)CNC(=O)c1ccccc1C(F)(F)F [Example 123]	4.56	100%	
O=C(NCC(F)(F)c1ccc(-c2ccc(S(=O)(=O)C(F)(F)F)cc2)cc1Cl)c1ccccc1C(F)(F)F [Example 45]	4.32		
N#Cc1cc(-c2ccc(C(F)(F)CNC(=O)c3ccccc3C(F)(F)F)c(Cl)c2)ccc1F [Example 96]	3.81		
N#Cc1cc(-c2ccc(OC(F)(F)F)cc2)ccc1C(F)(F)CNC(=O)c1ccccc1C(F)(F)F [Example 72]	4.23		
O=C(NCC(F)(F)c1ccc(-c2cccc(Cl)c2)cc1Cl)c1ccccc1C(F)(F)F [Example 69]	4.6	100%	
O=C(NCC(F)(F)c1ccc(-c2ccc(F)cc2)cc1Cl)c1ccccc1I [Example 57]	4.17		
O=C(NCC(F)(F)c1ccc(-c2ccc(OC(F)(F)F)c(F)c2)cc1Cl)c1ccccc1C(F)(F)F [Example 106]	4.8		
O=C(NCC(F)(F)c1c(F)cc(-c2ccc(SC(F)(F)F)cc2)cc1F)c1ccccc1C(F)(F)F [Example 47]	4.82	90%	
O=C(NCC(F)(F)c1ccc(-c2ccc(Cl)cc2)cc1C(F)(F)F)c1nccnc1C(F)(F)F [Example 53]		100%	
N#Cc1cc(-c2cc(F)c(F)c(F)c2)ccc1C(F)(F)CNC(=O)c1ccccc1C(F)(F)F [Example 107]	3.89		
CN1CCN(c2ccc(-c3ccc(C(F)(F)CNC(=O)c4ccccc4C(F)(F)F)c(Cl)c3)cc2)CC1 [Example 84]	1.84		
N#Cc1ccc(-c2cc(F)c(C(F)(F)CNC(=O)c3ccccc3C(F)(F)F)c(F)c2)cc1 [Example 46]	3.53		
Cc1cc(-c2ccc(OC(F)(F)F)cc2)ccc1C(F)(F)CNC(=O)c1ccccc1C(F)(F)F [Example 76]	4.68		
O=C(NCC(F)(F)c1ccc(-c2ccc(C(F)(F)F)cc2)cc1Cl)c1ccccc1C(F)(F)F [Example 41]	4.56		
O=C(NCC(F)(F)c1ccc(-c2cc(F)c(Cl)c(F)c2)cc1Cl)c1ccccc1C(F)(F)F [Example 110]	4.77		
N#Cc1cc(-c2ccc(F)cc2)ccc1C(F)(F)CNC(=O)c1ccccc1C(F)(F)F [Example 74]	3.63		activity (percentage of larval mortality) [2]: 90%
COc1cc(-c2ccc(C#N)cc2)ccc1C(F)(F)CNC(=O)c1ccccc1C(F)(F)F [Example 51]	3.43		activity (percentage of larval mortality) [2]: 90%
COc1cc(-c2ccc(OC(F)(F)F)cc2)ccc1C(F)(F)CNC(=O)c1ccccc1C(F)(F)F [Example 77]	4.42		
N#Cc1cc(-c2ccc(C(F)F)cc2)ccc1C(F)(F)CNC(=O)c1ccccc1C(F)(F)F [Example 89]	3.59		
